The text below walks through data of patent publication US20220273011A1, “GINGEROL COMPOUNDS AND THEIR USE AS FLAVOR MODIFIERS” (Firmenich SA, priority 2019, published 2022).

Common to all, as to assay type: in vivo
Assay [1] deals with salty taste and/or umami taste. Kind of assay: Sensory tests in chicken bouillon. The settings on record: for taste description: 10 ppm in chicken bouillon (0.7% salt, 0.04% MSG). The method, then:
[10]-gingerdiol and [10]-gingerdioldiacetate were tested to evaluate their ability to enhance salty taste and/or umami taste in chicken bouillon (GVA-000589, 0.7% salt, 0.04% MSG, no pepper, with 0.08% Chicken Flexarome 880449 FBS42).
The sensory tests were evaluated for salt intensity, umami intensity, and liking intensity. The experiments were conducted in four designs, i.e. UNF (reference), Ericamide ((E)-3-(3,4-dimethoxyphenyl)-N-(4-methoxyphenethyl)acrylamide, FEMA 4877) at 10 ppm, [10]-gingerdiol at 10 ppm, and [10]-gingerdioldiacetate at 10 ppm.

Assay [2] relates to salty taste and/or umami taste. Briefly: Sensory tests of the compounds of formula (I) and (III) in reference solutions (NaCl, MSG, KCl), with or without nose clip. The note with it: for enhancing effect for a salty or umami taste: references: 0.25% NaCl, 0.05% MSG, 0.25% KCl solution, FIGS. 1-6. The method, then:
Sensory tests of the compounds of the present application were conducted. The compounds of formula (I) and (III) of the present application were tasted in sensory tests for their ability to enhance salty taste and/or umami taste in food products. The sensory tests were evaluated in four characters as saltiness, umami taste, saltiness in the presence of potassium chloride, and potassium chloride taste. The food products were evaluated with or without these compounds relevant to references (as indicated “With NC-Ref”, or “Without NC-Ref” in figures). The reference for saltiness was a 0.25% NaCl solution, the reference for umami was a 0.05% MSG solution, and the salty/bitter reference was a 0.25% KCl solution. The data was analyzed for statistical significances (indicated as * in the figures), such as levels of significance or graph of differences between means.
FIGS. 1-6 show the results of sensory tests for enhancing salty taste and/or umami taste using the compounds of formula (I) and (III) of the present application.

Assay [3] deals with salty taste and/or umami taste. Briefly: Sensory tests in basic beef noodle seasoning. The settings on record: 10 ppm in salt water, in comparison to 0.3% salt; FIG. 8. The method, then: [6]-gingerdiol, [8]-gingerdiol, and [10]-gingerdioldiacetate were tested to evaluate their abilities to enhance salty taste and/or umami taste in basic beef noodle seasoning (GVA-003129, no salt, no MSG; salt (−25%) 0.525% RTC, MSG 0.25% RTC; Corned Beef 589879 CB at 0.2% RTC).
The sensory tests were evaluated for salt intensity, umami intensity, bitter intensity and liking intensity. The experiments were conducts in four designs, i.e. salt at 0.3%, [6]-gingerdiol at 10 ppm in salt water, [8]-gingerdiol at 10 ppm in salt water, and [10]-gingerdioldiacetate at 10 ppm in salt water.

Take `COc1ccc(CCNC(=O)/C=C/c2ccc(OC)c(OC)c2)cc1` [Ericamide, (E)-3-(3,4-dimethoxyphenyl)-N-(4-methoxyphenethyl)acrylamide, reference compound]: the taste description entry in assay [1] is “chickeny, balanced, good mouthfeel and salty tastes”.

As to `CCCCCCC[C@@H](C[C@@H](CCc1ccc(O)c(OC)c1)OC(C)=O)OC(C)=O` [[8]-gingerdioldiacetate], the “enhancing salty taste and/or umami taste in food products” value in assay [2] (FIG. 4) is “unexpected and excellent results”. The “enhancing effect for a salty or umami taste” value (“enhancing effect” for short) in assay [2] is recorded as “enhancing effect for a salty or umami taste”.

Consider `CCCCCCCCC[C@@H](C[C@@H](CCc1ccc(O)c(OC)c1)OC(C)=O)OC(C)=O` [[10]-gingerdioldiacetate], for which, in assay [3], the bitter intensity result was “less bitter intensities”, the liking intensity result was “higher liking intensities”, the salt intensity entry is reported as “higher salt intensity” and the umami intensity entry is “higher umami intensities”. For the same compound, the taste description entry in assay [1] was “strange, salty, solvent note, fruity, and some off tastes”. Moreover, in assay [2], the “enhancing effect” value is recorded as “enhancing effect for a salty or umami taste”.

On to `CCCCC[C@H](O)C[C@H](O)CCc1ccc(O)c(OC)c1` [[6]-gingerdiol], for which, in assay [3], the bitter intensity entry is “less bitter intensities”, the liking intensity entry is on record as “higher liking intensities”, the salt intensity result was “comparable salt intensities” and the umami intensity entry is “higher umami intensities”.

Consider `CCCCCCCCC[C@H](O)C[C@H](O)CCc1ccc(O)c(OC)c1` [[10]-gingerdiol], for which, in assay [1], the taste description result is “less round, more salty, more acidic, chickeny balanced, coriander leaf, good and quite clean tastes”. Moreover, the salt intensity result in assay [1] (10 ppm in chicken bouillon, vs UNF (reference), FIG. 9) is “unexpected effects in enhancing the salt intensity”. In addition, the “enhancing effect” value in assay [2] is “enhancing effect for a salty or umami taste”.

With `CCCCCCC[C@H](O)C[C@H](O)CCc1ccc(O)c(OC)c1` [[8]-gingerdiol], in assay [3], the bitter intensity result was “less bitter intensities”, the liking intensity entry is recorded as “higher liking intensities”, the salt intensity entry is given as “comparable salt intensities” and the umami intensity result is given as “higher umami intensities”. Besides, the “enhancing effect” value in assay [2] is on record as “enhancing effect for a salty or umami taste”.
